Results published in ChEMBL document CHEMBL1201862, “PubChem BioAssay data set” (2004).
The source made the active and inactive calls.

Columns and labels:
[1] = target: T1, Voltage-gated N-type calcium channel alpha-1B subunit/Amyloid beta A4 precursor protein-binding family A member 1 (Homo sapiens, UniProt Q00975+Q02410); test: disruptors of Mint-PDZ/N-type channel peptide interaction – biochemical, HTRF, set 2, SAR follow-up (AID 434980); format: functional
[2] = target: T1, Voltage-gated N-type calcium channel alpha-1B subunit/Amyloid beta A4 precursor protein-binding family A member 1; test: disruptors of Mint-PDZ/N-type channel peptide interaction – biochemical, HTRF, SAR follow-up (AID 2489); format: functional
[3] = target: Heat shock protein HSP 90-alpha (Homo sapiens, UniProt P07900); format: functional, organism-based
Vero = test: cells; format: functional; settings: Chlorocebus sabaeus
Beta-galactosidase = Beta-galactosidase (Escherichia coli, UniProt Q8VNN2); test: beta-galactosidase enzyme inhibitors and activators, dose response, artefact control for CCR6 antagonist project, biochemical, E. coli enzyme, set 3 (AID 504712); format: functional
[4] = target: C-C chemokine receptor type 6 (Homo sapiens, UniProt P51684); test: CCR6 receptor antagonists, dose response, cell-based, luminescent beta-arrestin readout (AID 504728); format: functional
[5] = Luminescence Cell-Based Dose Retest to Confirm Inhibitors of Cancer Stem Cells. [Related pubchem assays (depositor defined):AID2717, AID2721]; format: functional; settings: Homo sapiens
INS1 = test: beta cell apoptosis inhibitors, cytokine rescue, dose response, luminescence, retest (AID 449756); format: functional, cell-based; settings: Rattus norvegicus;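 also: cell death triggered by IL-1 beta plus TNF-alpha plus IFN-gamma mixture; protective hits raise ATP signal compared with cytokine alone wells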
[6] = target: T2, Ubiquitin-conjugating enzyme E2 N (Homo sapiens, UniProt P61088); format: functional;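 also: Dose-response confirmation in a TR-FRET assay detecting UBC13-driven polyubiquitin chain formation, inhibition measured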
T2 sequence (P61088 whole entry): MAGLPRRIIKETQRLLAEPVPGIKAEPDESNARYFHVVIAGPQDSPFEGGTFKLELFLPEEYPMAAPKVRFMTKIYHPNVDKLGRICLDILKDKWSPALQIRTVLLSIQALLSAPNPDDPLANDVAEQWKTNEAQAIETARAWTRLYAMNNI

[7] = target: Neurotensin receptor type 1 (Homo sapiens, UniProt P30989); format: functional;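 also: Image-based confirmatory dose-response assay measuring agonist activity at NTR1; NTR1-expressing U2OS osteosarcoma cells imaged for beta-arrestin GFP spot formation; agonist potency where compounds increase beta-arrestin recruitment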
[8] = target: G2/mitotic-specific cyclin-B1 (Homo sapiens, UniProt P14635); test: G2/M cell cycle arrest in HeLa, late-stage follow-up, mechanism study for Wee1 degradation inhibitor project, FACS, panel member Cyclin B Degradation (AID 2088)
Wee1-like protein kinase = Wee1-like protein kinase (Homo sapiens, UniProt P30291); test: G2/M cell cycle arrest in HeLa, late-stage follow-up, mechanism study for Wee1 degradation inhibitor project, FACS, panel member Wee1 Degradation (AID 2088)
[9] = target: Glucose-6-phosphate 1-dehydrogenase (Homo sapiens, UniProt P11413); test: human G6PD enzyme inhibitors, dose response, selectivity assay for P. falciparum G6PD inhibitor project, biochemical, fluorescence (AID 504792); format: functional
Sequence of Glucose-6-phosphate 1-dehydrogenase (P11413 whole entry): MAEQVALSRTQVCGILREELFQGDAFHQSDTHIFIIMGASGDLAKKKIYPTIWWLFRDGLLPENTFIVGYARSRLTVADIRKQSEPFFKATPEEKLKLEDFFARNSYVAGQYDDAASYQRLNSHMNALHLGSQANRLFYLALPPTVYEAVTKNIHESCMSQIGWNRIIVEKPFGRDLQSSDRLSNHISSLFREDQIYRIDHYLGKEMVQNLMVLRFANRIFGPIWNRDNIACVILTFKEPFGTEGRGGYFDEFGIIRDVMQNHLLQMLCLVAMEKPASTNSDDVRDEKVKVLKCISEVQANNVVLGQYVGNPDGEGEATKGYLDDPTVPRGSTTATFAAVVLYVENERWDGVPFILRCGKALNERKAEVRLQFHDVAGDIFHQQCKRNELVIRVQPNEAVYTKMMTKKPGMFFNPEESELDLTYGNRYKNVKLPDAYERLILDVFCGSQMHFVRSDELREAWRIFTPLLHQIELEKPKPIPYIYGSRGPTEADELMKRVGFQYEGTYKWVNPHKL

Nonstructural protein 1 = Nonstructural protein 1 (Influenza A virus, UniProt Q194T2); format: functional, Influenza A virus (A/California/07/2009(H1N1))
Sequence of Nonstructural protein 1 (Q194T2 whole entry): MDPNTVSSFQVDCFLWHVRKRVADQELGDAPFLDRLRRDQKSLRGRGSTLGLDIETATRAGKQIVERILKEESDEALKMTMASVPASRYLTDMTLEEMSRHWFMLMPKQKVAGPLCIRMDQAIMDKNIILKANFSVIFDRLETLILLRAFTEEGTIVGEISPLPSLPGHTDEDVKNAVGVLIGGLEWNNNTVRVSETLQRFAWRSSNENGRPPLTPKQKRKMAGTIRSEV

[10] = human group III sPLA2 inhibitors, dose response, biochemical, QFRET, IC50 (AID 743457);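 also: green fluorescence rise as the enzyme cleaves BODIPY PC-A2 in liposomes; potency for inhibition of the enzyme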
Prothrombin = Prothrombin (Bos taurus, UniProt P00735); test: thrombin inhibition, dose response, biochemical, fluorescence polarization, uHTS hits (AID 602369); format: functional
[11] = target: 72 kDa type IV collagenase (Homo sapiens, UniProt P08253); test: Dose Response validation of uHTS RPN11 inhibitor hits using a MMP-2 Fluorescence assay.; format: functional
Sequence of 72 kDa type IV collagenase (P08253 whole entry): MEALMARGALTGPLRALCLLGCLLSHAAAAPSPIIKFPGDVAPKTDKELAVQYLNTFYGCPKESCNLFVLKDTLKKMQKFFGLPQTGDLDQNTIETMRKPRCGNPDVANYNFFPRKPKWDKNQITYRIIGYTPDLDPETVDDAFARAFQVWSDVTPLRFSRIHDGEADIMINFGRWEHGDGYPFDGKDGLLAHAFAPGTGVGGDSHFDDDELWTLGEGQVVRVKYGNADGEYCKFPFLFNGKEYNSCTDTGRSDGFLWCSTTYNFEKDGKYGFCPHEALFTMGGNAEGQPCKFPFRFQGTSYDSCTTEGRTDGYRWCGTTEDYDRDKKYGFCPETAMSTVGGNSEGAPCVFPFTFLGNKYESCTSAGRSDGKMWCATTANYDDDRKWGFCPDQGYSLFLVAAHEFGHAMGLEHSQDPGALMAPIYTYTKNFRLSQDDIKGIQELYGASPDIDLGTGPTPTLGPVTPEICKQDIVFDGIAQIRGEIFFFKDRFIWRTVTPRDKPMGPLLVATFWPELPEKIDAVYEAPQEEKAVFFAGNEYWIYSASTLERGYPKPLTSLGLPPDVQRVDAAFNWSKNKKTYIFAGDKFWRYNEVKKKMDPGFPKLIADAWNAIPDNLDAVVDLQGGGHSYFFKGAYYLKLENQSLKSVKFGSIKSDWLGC

[12] = target: 26S proteasome non-ATPase regulatory subunit 14 (Homo sapiens, UniProt O00487); test: inhibition of proteasome subunit RPN11 – biochemical, fluorescence polarization, uHTS hits, confirmation (AID 602368); format: functional
Protein Tat = Protein Tat (Human immunodeficiency virus type 1 group M subtype B (isolate HXB2)(HIV-1), UniProt P04608); format: functional;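 also: tat binding to TAR RNA read out by fluorescence polarization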
[13] = target: T3, Histone-lysine N-methyltransferase NSD2 (Homo sapiens, UniProt O96028); format: biochemical
T3 sequence (O96028 whole entry): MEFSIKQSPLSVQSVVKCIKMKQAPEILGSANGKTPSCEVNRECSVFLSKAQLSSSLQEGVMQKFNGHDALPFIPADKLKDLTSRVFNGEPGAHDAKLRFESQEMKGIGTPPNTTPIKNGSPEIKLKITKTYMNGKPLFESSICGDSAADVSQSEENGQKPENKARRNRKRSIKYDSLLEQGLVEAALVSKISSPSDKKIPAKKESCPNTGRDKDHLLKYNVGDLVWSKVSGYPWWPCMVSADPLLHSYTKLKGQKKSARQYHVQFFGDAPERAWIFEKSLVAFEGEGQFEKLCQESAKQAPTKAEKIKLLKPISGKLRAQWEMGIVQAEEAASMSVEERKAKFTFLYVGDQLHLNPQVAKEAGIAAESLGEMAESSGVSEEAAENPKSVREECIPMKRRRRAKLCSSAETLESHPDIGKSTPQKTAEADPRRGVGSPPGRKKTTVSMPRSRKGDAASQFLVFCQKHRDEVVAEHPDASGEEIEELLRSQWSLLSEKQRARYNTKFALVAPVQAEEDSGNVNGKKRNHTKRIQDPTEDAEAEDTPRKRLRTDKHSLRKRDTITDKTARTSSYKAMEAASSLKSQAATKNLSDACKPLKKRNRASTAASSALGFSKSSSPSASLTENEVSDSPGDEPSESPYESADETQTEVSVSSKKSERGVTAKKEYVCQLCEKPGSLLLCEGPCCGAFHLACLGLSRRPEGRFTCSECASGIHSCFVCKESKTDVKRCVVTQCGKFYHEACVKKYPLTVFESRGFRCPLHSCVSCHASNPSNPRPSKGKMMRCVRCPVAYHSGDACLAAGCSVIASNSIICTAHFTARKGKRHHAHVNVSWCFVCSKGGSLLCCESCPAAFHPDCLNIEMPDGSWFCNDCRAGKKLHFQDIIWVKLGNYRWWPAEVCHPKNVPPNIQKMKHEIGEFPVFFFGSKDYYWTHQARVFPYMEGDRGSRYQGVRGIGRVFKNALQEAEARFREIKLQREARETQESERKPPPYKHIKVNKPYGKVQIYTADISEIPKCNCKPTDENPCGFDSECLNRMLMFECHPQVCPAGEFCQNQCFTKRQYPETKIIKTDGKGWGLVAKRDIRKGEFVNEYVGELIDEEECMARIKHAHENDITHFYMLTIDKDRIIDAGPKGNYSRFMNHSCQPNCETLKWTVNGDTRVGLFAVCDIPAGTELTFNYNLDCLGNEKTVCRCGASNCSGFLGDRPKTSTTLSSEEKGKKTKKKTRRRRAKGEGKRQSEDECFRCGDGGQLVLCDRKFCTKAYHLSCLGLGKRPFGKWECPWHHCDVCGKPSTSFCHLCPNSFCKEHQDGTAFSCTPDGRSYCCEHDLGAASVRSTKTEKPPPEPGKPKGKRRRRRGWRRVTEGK

[14] = target: Cystic fibrosis transmembrane conductance regulator/Golgi-associated PDZ and coiled-coil motif-containing protein (Homo sapiens, UniProt P13569+Q9HD26); test: CAL PDZ peptide-binding inhibitors, dose response, biochemical, fluorescence polarization, Cerulean-tagged CAL PDZ, cherry-picks (AID 504773)
[15] = target: Glutathione-S-transferase (Schistosoma japonicum, UniProt Q26513); test: biotin-GST/anti-GST TR-FRET signal inhibitors, dose response, artefact control for Vif-APOBEC3G degradation inhibitor project, biochemical (AID 1117362); format: functional
[16] = THP-1 cell cytotoxicity, dose response, cytotoxicity control for Vif-APOBEC3G degradation inhibitor project, THP-1 cells (AID 1117359); format: functional; settings: Human immunodeficiency virus 1, THP-1
[17] = target: Botulinum neurotoxin type F (Clostridium botulinum, UniProt P30996); test: High-throughput multiplex microsphere dose response for inhibitors of toxin protease, specifically Botulinum neurotoxin light chain F protease, compounds from Cherry Pick 02.; format: functional; settings: read-out: EC50_MICROM
Sequence of Botulinum neurotoxin type F (P30996 1-436 limits assumed): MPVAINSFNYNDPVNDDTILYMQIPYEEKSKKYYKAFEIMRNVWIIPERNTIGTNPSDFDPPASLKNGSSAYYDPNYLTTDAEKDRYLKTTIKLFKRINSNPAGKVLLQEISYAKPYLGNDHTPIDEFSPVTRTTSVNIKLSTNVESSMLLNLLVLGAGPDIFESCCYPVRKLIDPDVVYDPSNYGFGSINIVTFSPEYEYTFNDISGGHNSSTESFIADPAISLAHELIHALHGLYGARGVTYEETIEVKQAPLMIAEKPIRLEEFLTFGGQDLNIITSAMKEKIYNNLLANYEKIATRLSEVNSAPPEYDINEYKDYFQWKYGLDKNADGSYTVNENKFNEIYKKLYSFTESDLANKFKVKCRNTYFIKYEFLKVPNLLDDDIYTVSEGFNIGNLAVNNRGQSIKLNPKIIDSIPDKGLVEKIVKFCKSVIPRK

[18] = target: T4, COUP transcription factor 2 (Homo sapiens, UniProt P24468); test: Luminescence-based cell-based high throughput dose response assay to identify inhibitors of COUP-TFII (NR2F2).; format: functional;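 also: HEK293 cells transiently cotransfected with COUP-TFII expression vector and reporter; luciferase reporter luminescence driven by COUP-TFII from the pX2-168 reporter plasmid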
T4 sequence (P24468 whole entry): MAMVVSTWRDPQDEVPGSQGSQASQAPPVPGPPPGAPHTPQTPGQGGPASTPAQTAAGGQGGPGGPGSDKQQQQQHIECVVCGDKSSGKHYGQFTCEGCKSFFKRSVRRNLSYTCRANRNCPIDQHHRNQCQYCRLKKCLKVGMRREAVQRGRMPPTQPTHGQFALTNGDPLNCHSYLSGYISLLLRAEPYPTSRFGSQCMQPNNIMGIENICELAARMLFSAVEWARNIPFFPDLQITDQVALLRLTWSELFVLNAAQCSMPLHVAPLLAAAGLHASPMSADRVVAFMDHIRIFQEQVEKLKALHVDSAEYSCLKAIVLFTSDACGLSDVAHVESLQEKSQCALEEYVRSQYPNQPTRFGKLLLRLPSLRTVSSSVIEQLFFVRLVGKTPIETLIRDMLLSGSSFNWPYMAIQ

[19] = target: Matrix metalloproteinase-14 (Homo sapiens, UniProt P50281); test: Dose Response confirmation of uHTS hits for a small molecule inhibitors of MT1-MMP activation in a fluorescence assay set 1.; format: functional

T1 sequence (Q00975 whole entry): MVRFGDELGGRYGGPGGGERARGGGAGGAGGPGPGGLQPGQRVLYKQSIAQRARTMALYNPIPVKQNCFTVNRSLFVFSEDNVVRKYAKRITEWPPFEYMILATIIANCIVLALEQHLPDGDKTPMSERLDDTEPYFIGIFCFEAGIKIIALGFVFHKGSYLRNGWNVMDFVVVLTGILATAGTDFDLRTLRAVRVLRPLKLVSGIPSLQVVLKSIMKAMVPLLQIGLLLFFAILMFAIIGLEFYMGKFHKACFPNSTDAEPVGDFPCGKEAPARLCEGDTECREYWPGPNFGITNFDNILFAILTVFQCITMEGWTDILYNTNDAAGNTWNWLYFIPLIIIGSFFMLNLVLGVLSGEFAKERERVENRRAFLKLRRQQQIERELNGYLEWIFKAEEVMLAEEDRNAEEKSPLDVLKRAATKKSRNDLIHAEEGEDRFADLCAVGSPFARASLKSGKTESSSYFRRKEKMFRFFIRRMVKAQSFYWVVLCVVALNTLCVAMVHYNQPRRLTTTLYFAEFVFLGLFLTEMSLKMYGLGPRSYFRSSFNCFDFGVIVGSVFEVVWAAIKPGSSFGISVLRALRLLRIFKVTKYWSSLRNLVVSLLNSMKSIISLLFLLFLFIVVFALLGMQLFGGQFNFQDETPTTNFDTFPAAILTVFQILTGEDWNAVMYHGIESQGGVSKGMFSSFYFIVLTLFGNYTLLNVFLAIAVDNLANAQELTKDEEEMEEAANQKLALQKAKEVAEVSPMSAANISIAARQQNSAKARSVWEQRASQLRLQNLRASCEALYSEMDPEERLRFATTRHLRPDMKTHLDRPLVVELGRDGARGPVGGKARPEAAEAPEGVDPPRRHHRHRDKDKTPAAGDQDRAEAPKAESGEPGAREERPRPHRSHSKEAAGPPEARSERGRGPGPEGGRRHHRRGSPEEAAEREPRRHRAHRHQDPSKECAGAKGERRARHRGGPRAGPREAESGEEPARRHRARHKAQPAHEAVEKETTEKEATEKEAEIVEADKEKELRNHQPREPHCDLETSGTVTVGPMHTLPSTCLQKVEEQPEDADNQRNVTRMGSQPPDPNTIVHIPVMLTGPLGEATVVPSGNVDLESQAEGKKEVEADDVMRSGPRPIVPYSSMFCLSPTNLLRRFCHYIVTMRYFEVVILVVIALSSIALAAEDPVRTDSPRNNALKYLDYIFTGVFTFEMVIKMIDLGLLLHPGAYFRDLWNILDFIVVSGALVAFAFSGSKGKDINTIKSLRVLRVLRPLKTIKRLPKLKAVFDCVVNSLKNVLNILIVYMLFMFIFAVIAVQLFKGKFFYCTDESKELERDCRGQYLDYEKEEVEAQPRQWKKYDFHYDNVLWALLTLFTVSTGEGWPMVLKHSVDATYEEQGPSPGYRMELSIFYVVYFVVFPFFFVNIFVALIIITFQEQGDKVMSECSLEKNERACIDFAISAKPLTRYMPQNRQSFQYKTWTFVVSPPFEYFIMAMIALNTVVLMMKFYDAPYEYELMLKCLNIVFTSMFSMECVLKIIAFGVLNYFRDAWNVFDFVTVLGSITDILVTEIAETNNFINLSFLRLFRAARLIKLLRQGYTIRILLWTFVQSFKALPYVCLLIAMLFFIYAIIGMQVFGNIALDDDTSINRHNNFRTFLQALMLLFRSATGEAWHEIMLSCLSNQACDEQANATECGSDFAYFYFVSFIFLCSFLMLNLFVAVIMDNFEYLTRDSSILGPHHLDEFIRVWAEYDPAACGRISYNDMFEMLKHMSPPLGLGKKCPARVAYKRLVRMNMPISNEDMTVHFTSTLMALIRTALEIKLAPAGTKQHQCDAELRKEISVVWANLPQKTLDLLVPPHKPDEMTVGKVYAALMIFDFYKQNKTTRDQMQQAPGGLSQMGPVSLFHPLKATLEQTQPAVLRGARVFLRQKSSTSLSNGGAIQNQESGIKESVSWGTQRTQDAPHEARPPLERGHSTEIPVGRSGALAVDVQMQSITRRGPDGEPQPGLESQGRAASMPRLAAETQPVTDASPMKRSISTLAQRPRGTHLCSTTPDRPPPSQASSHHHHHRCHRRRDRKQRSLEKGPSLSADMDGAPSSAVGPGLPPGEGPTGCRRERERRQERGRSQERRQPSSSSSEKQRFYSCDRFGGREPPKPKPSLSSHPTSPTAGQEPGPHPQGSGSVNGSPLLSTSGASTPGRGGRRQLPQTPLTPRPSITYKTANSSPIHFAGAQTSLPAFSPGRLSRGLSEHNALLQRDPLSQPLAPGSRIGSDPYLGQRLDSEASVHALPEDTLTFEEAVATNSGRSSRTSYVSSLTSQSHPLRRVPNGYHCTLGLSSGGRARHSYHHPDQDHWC
T1 sequence (Q02410 whole entry): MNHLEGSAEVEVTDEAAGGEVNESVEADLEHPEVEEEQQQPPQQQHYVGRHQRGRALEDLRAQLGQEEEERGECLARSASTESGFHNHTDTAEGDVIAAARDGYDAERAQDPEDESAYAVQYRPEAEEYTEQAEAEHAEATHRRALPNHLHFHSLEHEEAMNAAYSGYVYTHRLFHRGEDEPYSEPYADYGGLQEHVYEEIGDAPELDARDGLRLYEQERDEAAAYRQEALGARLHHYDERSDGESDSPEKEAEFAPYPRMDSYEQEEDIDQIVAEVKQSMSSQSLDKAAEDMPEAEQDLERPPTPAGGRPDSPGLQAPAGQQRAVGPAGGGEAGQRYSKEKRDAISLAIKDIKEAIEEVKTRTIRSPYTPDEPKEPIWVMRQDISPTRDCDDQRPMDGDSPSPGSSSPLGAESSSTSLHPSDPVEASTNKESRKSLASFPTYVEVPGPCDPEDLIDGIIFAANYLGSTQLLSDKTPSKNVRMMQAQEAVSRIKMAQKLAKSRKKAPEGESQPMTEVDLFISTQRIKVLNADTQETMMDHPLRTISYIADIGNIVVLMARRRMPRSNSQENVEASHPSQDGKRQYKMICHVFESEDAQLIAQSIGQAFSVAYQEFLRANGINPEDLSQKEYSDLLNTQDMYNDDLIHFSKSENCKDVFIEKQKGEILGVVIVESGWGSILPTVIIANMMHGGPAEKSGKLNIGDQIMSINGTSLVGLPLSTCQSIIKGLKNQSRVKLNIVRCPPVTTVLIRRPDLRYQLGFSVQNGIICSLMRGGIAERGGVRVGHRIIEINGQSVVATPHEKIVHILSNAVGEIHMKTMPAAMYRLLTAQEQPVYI

Compound: O=C(NCCc1ccccn1)c1cc(-c2ccco2)nc2ccccc12
- IC50 [1]: > 56.8 µM (inactive)
- IC50 [2]: > 56.8 µM (inactive)

Compound: O=[N+]([O-])c1cccc(C=NNc2ccc3ccccc3n2)c1O
- AC50 [3]: 2.76 µM (active)
- CC50 (Vero): 1.44 µM (active)
- IC50 (Beta-galactosidase): > 66.6 µM (inactive)
- IC50 [4]: > 66.6 µM (inactive)

Compound: CC(C)C[C@H]1CN=C(Nc2ccccc2)N1CC1CCC(C(C)(C)C)CC1 (some centres not stated)
- AC50 [5]: 5.02 µM (active)
- AC50 (INS1): 6.54 µM (active)
- IC50 [6]: > 20 µM (inactive)
- EC50 [7]: 15.7 µM (active)

Compound: CC(C)c1ccc(NC(=O)CCCOc2cc(=O)n(C)c3ccccc23)cc1
- EC50 [8]: > 49.7 µM (inactive)
- EC50 (Wee1-like protein kinase): > 49.7 µM (inactive)

Compound: COc1cc(N(C)C)ccc1C=c1c2ccccc2n2c1cc(-c1ccccc1)[n+]2C
- IC50 [9]: > 80 µM (inactive)
- IC50 (Nonstructural protein 1): 3.2 µM (active)
- IC50 [10]: 19.2 µM (inactive)
- IC50 (Prothrombin): 11.8 µM (active)
- AC50 [3]: 7.6 µM (active)
- IC50 [11]: > 100 µM (inactive)
- IC50 [12]: 24.9 µM (active)
- IC50 (Protein Tat): > 100 µM (active)
- AC50 [13]: 3.07 µM (active)
- AC50 [14]: 39.9 µM (active)
- IC50 [15]: 3.69 µM (active)
- CC50 [16]: 0.22 µM (active)
- EC50 [17]: > 20 µM (inactive)
- IC50 [18]: 4.89 µM (active)
- IC50 [19]: 14.6 µM (active)
